Measurements reported in patent US20220087987A1, “A METHOD FOR TREATING SWI/SNF COMPLEX-DEFICIENT CANCERS COMPRISING GLUTATHIONE (GSH) METABOLIC PATHWAY INHIBITOR” (National Cancer Center, priority 2018, published 2022).

Assays:
[1] = system: ARID1A-proficient and ARID1A-deficient cancer cell lines; test: Cell viability and colony formation in cancer cell line panel; assay type: cell-based, human; details: four ARID1A-proficient and six ARID1A-deficient cell lines; cell viability, colony formation
GSH = test: Detection of GSH in cells (GSH/GSSG-Glo, GSH-Glo); assay type: cell-based, human
ROS = test: Detection of ROS in cells (ROS-Glo); assay type: cell-based, human
Protocol: GSH, ROS and apoptosis were detected using the GSH/GSSG-Glo Assay (Promega) and/or the GSH-Glo Assay (Promega), the ROS-Glo Assay (Promega), and the Caspase-Glo 3/7 Assay, respectively. To measure levels of GSH, ROS and apoptosis after drug treatment, cells were trypsinized, counted, reseeded at the specified density in 96-well plates and exposed to the indicated concentrations of drugs. After 16-48 hrs, luminescence was measured using an Envision Multi-label plate reader (PerkinElmer). To measure levels of GSH and ROS after siRNA-mediated knockdown, cell lines were transfected with siRNAs (25 nM) using Lipofectamine RNAiMAX. After 48 hrs, cells were trypsinized and transfected repeatedly with siRNAs (25 nM) using Lipofectamine RNAiMAX. Cells were trypsinized after a further 48 hrs, counted, and reseeded at the specified density in 96-well plates. After 72-120 hrs, luminescence was measured using an Envision Multi-label plate reader (PerkinElmer). Cell viability was also measured using the CellTiter-Glo Luminescent Cell Viability Assay (Promega). Caspase-3/7, GSH, and ROS levels were normalized against cell viability. The GSH/GSSG ratio was calculated as the GSH-GSSG signal divided by the GSSG/2 signal. Relative signal ratios in treated samples were normalized against untreated samples.

p53, p21 = test: Immunoblot for p53 and p21; assay type: cell-based, human; details: ARID1A-WT and ARID1A-KO HCT116; 50 μM PRIMA-1, 50 μM APR-246, 10 μM Nutlin3a, 16 hrs
Protocol: The soluble fractions of whole-cell lysates were mixed with SDS sample buffer. […] The soluble fractions were mixed with SDS sample buffer. Tumor samples derived from xenografts were weighed and washed with PBS. […] The homogenized tumor samples were diluted in an additional 450 μl of NETN420 buffer, incubated for 30 min on ice, and centrifuged at 4° C. for 10 min at 15,000 rpm. The soluble fractions of whole-cell lysates were mixed with SDS sample buffer. Proteins were separated by SDS-PAGE, transferred to PVDF membranes, and immunoblotted with the indicated antibodies. β-actin was used as a loading control. Membranes were blocked overnight at 4° C. or for 1 hr at 25° C. with PVDF Blocking Reagent for Can Get Signal (TOYOBO) and then probed with Can Get Signal Solution 1 (TOYOBO) containing primary antibodies. After washing with TBS containing 0.1% Tween 20, the membranes were incubated with TBS containing 0.1% Tween 20, 1% BSA, and horseradish peroxidase-conjugated anti-mouse or anti-rabbit secondary antibodies, and visualized using Western Lightning ECL Pro (Perkin Elmer). Chemiluminescence signals were measured using LAS-3000 Imaging System (Fujifilm). Signal intensities were measured using Multi Gauge software.

[2] = system: ARID1A-deficient TOV21G OCCC xenografts; test: Mouse xenograft model, TOV21G; assay type: in vivo, mice; details: APR-246 50 mg/kg
Protocol: All mouse experiments were approved by the National Cancer Center (NCC) animal Ethical Committee. Cells were counted and re-suspended in a 1:1 mixture of 100 μl culture medium and 100 μl Matrigel (BD Biosciences) on ice. […] In the subcutaneous model, once the tumors were palpable (about 3-14 days after implantation), mice were randomly divided into two groups. […] In the doxycycline (Dox) treatment study, TOV21G-shNT cells and TOV21G-shGCLC cells were injected into the flanks of 6-week-old female BALB/c-nu/nu mice. […] In other experiments, TOV21G-shNT cells and TOV21G-shGCLC cells were treated with Dox (0.5 μg/ml) for 4 days and then injected into the flank of 6-week-old female BALB/c-nu/nu mice. […] Tumor growth was measured every several days using calipers. The volume of implanted tumors was calculated using the formula V=L×W2/2, where V is volume (mm^3), L is the largest diameter (mm), and W is the smallest diameter (mm). At the end of the experiment, mice were sacrificed in accordance with standard protocols.
GSH was detected using the GSH-Glo Assay (Promega). Tumor samples derived from xenografts were weighed and washed with PBS. The tumor samples were mixed with 50 μl of PBS and homogenized using a Mini Cordless Grinder (Funakoshi). PBS (950 μl) was added to homogenized tumor samples and centrifuged at 4° C. for 10 min at 15,000 rpm. Tumor extract and 2×GSH-Glo Reagent (25 μl of each) were mixed in white 96-well plates (Greiner) and incubated for 30 min at room temperature. Luciferin Detection Reagent (50 μl) was added and the samples were incubated for 15 min at room temperature. Luminescence was measured using an Envision Multi-label plate reader (PerkinElmer). GSH signal intensities per 1 mg of tumor sample were calculated.
Formalin-fixed, paraffin-embedded ovarian cancer clinical specimens and TOV21G xenografts were deparaffinized and representative whole 4-μm-thick sections were analyzed by IHC. […] The samples were removed from the freezer and equilibrated at −20° C. for approximately 15 minutes before sectioning. Tissue sections (6 μm thick) were placed on positively charged slides, dried, and fixed for 15 minutes at room temperature in 3% formaldehyde, followed by 5 minutes in methanol at −20° C. After fixation, representative sections were analyzed by IHC. […] All IHC staining was performed using a Dako autostainer Link48 (Dako).
First, membrane staining intensity (0, 1+, 2+, or 3+) was determined for each cell in a fixed field. The H-score was assigned using the following formula: [1×(% cells 1+)+2×(% cells 2+)+3×(% cells 3+)]. The final score, ranging from 0 to 300, gives more relative weight to higher-intensity membrane staining in a given tumor sample. The percentage of NOXA-, cleaved caspase-3-, cleaved PARP- and Ki67-positive cells (of the total number of cells) in each slide were counted.

[3] = system: diffuse-type gastric cancer PDCs; test: Cell viability of diffuse-type gastric cancer PDCs; assay type: cell-based, human; details: treatment for 6 days
[4] = ARID1A-deficient versus ARID1A-proficient ovarian and other cancer cells

COCC1(CO)C(=O)C2CCN1CC2 (stereo not shown) [APR-246]
sensitivity of ARID1A-deficient versus ARID1A-proficient cancer cells [1]: more sensitive to APR-246 than ARID1A-proficient cancer cells
GSH level (GSH/GSSG) in SWI/SNF complexes-deficient cancer cells (GSH; 40 μM APR-246, 24 hrs): decreased in the GSH level
GSH levels (GSH/GSSG) in gastric cancer PDCs (GSH; 40 or 50 μM APR-246, 1.25 μM erastin, 24 hrs): markedly decreased GSH levels in ARID1A-deficient PDCs and not in ARID1A-proficient PDCs
GSH level (ratio of reduced GSH to GSSG) (GSH; ARID1A-KO HCT116 cells, but not ARID1A-WT cells, 24 hrs): dose-dependently decreased the GSH level
GSH levels in ovarian PDCs (GSH; ARID1A-deficient PDCs, 50 μM, 24 hrs): decreased the GSH levels
GSH level in cancer cell lines (GSH; [4]): decreased GSH level
ROS level in SWI/SNF complexes-deficient cancer cells (ROS; 40 μM APR-246, 24 hrs): increased in the ROS level
ROS levels in gastric cancer PDCs (ROS; 40 or 50 μM APR-246, 48 hrs): increased more markedly in ARID1A-deficient than in ARID1A-proficient PDCs
intracellular ROS level (H2O2) (ROS; ARID1A-KO versus ARID1A-WT HCT116 cells, 48 hrs): increased more in ARID1A-KO cells than in ARID1A-WT cells
levels of ROS and apoptosis in ovarian PDCs (ROS; ARID1A-deficient PDCs, 40-50 μM, 24-48 hrs): increased the levels of ROS and apoptosis
ROS level in cancer cell lines (ROS; [4]): increased ROS level
expression of p53 and p21 (p53, p21): did not markedly affect expression of p53 or p21
GSH level in xenograft cells [2]: decreased
apoptotic markers NOXA, cleaved PARP, cleaved caspase-3 and proliferation marker Ki67 (IHC) [2]: markedly increased expression of the apoptotic markers NOXA, cleaved PARP, and cleaved caspase-3, and decreased expression of the cell proliferation marker Ki67
oxidative stress marker 8-OHdG (IHC, H-score) [2]: increased the level of the oxidative stress marker 8-hydroxy-2′-deoxyguanosine (8-OHdG) markedly
tumor weight ([2]; BSO 750 mg/kg): reduced
body weight of mice ([2]; BSO 750 mg/kg once a day): did not cause significant loss of body weight
growth of xenografts (tumor volume) ([2]; intraperitoneally once daily 12-14 days, BSO 750 mg/kg): significantly suppressed the growth
IC50 values in ARID1A-deficient versus ARID1A-proficient PDCs [3]: markedly lower in ARID1A-deficient PDCs than in ARID1A-proficient PDCs
